Experimental data as given in ChEMBL document CHEMBL4814032, “Discovery of an indole-substituted furanone with tubulin polymerization inhibition activity” (Bioorg Med Chem Lett, 2021).
Calls of active or inactive are those of the source. No cut-off for these calls is given here.

Experiments:
U-937 = experiment: Cytotoxicity against human U-937 cells by MTT assay; assay type: functional, cell-based
Tubulin (Homo sapiens) = Tubulin (Homo sapiens) (UniProt P68371+Q9H4B7+P0DPH7+P68366+Q13509+Q71U36+P04350+Q3ZCM7+P07437+P68363+Q9BQE3+Q6PEY2+Q13885+Q9BVA1+Q9BUF5); experiment: Inhibition of tubulin polymerization (unknown origin) at 10 uM; assay type: protein-complex assay
[1] = target: Vascular endothelial growth factor receptor 3 (Homo sapiens) (UniProt P35916); experiment: Binding affinity to VEGFR3 (unknown origin)
Chain of Vascular endothelial growth factor receptor 3 (Homo sapiens) (P35916 whole entry): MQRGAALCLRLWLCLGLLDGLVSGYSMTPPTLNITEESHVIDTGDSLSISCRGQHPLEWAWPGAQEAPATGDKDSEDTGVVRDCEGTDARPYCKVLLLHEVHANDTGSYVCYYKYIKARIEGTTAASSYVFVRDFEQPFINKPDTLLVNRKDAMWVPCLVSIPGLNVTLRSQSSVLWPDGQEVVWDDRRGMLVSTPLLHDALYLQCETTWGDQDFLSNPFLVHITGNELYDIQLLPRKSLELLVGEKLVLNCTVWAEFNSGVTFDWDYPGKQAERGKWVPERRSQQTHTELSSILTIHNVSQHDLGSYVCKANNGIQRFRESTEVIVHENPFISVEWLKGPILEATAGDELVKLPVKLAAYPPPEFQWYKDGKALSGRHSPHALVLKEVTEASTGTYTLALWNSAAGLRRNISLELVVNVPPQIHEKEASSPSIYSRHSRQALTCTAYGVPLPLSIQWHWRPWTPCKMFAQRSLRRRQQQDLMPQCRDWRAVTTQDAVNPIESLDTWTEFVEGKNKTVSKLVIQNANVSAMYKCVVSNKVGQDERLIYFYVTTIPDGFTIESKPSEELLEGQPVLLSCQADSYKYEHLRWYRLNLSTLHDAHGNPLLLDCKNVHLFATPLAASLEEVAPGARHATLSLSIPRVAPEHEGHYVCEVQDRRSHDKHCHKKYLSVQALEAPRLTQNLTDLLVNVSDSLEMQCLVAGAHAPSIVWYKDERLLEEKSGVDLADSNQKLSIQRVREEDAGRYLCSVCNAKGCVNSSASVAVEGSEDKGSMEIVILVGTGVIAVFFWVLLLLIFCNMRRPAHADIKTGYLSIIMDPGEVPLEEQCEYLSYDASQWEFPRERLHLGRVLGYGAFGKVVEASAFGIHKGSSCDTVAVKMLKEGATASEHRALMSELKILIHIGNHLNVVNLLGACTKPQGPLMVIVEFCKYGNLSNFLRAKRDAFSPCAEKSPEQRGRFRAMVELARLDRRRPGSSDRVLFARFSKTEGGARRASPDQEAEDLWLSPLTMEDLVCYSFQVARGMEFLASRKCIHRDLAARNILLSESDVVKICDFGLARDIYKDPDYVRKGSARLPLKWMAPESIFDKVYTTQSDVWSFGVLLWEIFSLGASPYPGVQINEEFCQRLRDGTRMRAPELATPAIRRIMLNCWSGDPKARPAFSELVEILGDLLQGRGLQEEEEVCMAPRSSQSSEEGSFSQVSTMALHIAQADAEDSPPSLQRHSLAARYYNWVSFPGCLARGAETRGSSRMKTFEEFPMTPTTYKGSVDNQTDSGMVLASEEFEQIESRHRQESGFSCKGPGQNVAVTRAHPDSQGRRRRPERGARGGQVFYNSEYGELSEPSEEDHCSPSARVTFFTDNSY

[2] = target: T1, Protein kinase C epsilon type (Homo sapiens) (UniProt Q02156); experiment: Binding affinity to PKCepsilon (unknown origin)
T1 sequence (whole entry): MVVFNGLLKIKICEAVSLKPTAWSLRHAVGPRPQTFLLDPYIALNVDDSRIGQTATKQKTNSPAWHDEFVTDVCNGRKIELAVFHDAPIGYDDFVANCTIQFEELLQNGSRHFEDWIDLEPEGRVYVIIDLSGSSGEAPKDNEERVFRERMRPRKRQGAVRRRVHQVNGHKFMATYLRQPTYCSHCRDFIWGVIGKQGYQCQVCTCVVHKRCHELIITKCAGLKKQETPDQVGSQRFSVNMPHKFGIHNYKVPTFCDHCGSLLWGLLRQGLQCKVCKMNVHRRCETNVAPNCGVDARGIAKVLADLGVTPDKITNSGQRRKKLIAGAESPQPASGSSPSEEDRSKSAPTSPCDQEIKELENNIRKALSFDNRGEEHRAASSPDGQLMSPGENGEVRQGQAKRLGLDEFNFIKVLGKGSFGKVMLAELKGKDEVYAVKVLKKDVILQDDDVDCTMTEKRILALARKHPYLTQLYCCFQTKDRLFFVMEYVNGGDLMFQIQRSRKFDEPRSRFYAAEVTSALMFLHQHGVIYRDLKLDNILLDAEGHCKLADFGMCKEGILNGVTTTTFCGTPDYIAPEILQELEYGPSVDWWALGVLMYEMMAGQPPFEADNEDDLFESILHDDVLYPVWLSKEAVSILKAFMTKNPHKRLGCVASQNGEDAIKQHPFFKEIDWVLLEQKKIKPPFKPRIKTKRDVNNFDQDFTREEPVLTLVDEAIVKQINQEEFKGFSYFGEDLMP

Row | SMILES | IC50 (U-937) [µM] | also measured
1 | COc1ccc(C2=C(c3cn(C)c4ccccc34)C(=O)OC2)cc1OC | 1 | –
2 | CCCN1CC(c2ccc(OC)c(OC)c2)=C(c2cn(C)c3ccccc23)C1=O | 5 | –
3 | COc1ccc(C2=C(c3c[nH]c4ccccc34)C(=O)OC2)cc1OC | 9 | –
4 | CCOC(=O)n1cc(C2=C(c3ccc(OC)c(OC)c3)COC2=O)c2ccccc21 | 0.3 | inhibition (Tubulin (Homo sapiens)): Active
5 | COc1ccc(C2=C(c3cn(C)c4ccccc34)C(=O)NC2)cc1OC | – | Activity [1]: 50%; Activity [2]: 47%
6 | CCCN1CC(c2ccc(OC)c(OC)c2)=C(c2cn(C(=O)OCC)c3ccccc23)C1=O | 5 | –
7 | CCCN1CC(c2ccc(OC)c(OC)c2)=C(c2c[nH]c3ccccc23)C1=O | 35 | –
